Patent US12325697B2 (Nimbus Clio, Inc., priority 2021, dated 2025)

Tests used:
[1] = target: Recombinant human Cbl-b (aa 36-427) (Homo sapiens (Human), UniProt Q13191); test: Cbl-b Biochemical Assay (TR-FRET); details: read-out: TR-FRET hCbl-b IC50
How it was run: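 IC50 from 4-parameter fit of % inhibition (DMSO max, reference-inhibitor min), duplicate ten-point series. Compound preincubated with 6 nM Cbl-b, then Src-Zap70 (1-2.5 nM)/0.5 mM ATP reaction 60 min RT; EDTA quench with labelled UBE2D2-Ub and streptavidin-terbium, 60 min, HTRF at 520 nm.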

[2] = target: Recombinant human c-Cbl (aa 47-435) (Homo sapiens (Human), UniProt P22681); test: c-Cbl Biochemical Assay (TR-FRET)
Description: Recombinant human c-Cbl (aa 47-435) was expressed in E. coli, purified and biotinylated in vitro. The protein was diluted to 12 nM in freshly prepared assay buffer consisting of 50 mM HEPES, pH 7.0, 100 mM NaCl, 5 mM MgCl2, 0.01% Triton-X 100, 0.01% BSA and 1 mM DTT. Recombinant human Src (aa 254-536)-[…]-Zap-70 (aa 281-297) fusion protein was expressed in E. coli and purified. Protein was diluted in assay buffer to 5-20 nM and ATP was added to 1 mM. Recombinant human UBE2D2([…]) was expressed in E. coli, purified and ubiquitinated and Bodipy labelled in vitro. Protein was diluted to 200 nM in assay buffer without MgCl2 (or Cisbio PPI buffer). Streptavidin-Terbium was added to 2 nM and EDTA to 10 mM, to provide a binding assay mix. Compounds were dissolved in DMSO and diluted to prepare a ten-point half log dilution series. 100 nl of each compound concentration was dispensed in duplicate in a 384 well black assay plate using acoustic dispensing. Wells for maximum signal controls received 100 nl of DMSO only and wells for minimum controls received 100 nl of a reference inhibitor compound at a final assay concentration of […] to produce 100% inhibition. 5 μl of diluted c-cbl enzyme was added to all wells of the assay plate and incubated at RT for 30 min. The enzyme assay was initiated by addition of 5 μl of Src-Zap/ATP mix to all wells, and the plate incubated at RT for 60-90 min. The enzyme reaction was terminated and the binding reaction was initiated by adding 10 μl of binding assay mix to all wells and incubating the plate at RT for 60 min prior to assay read. Final assay conditions consisted of 6 nM c-cbl, 2.5-10 nM Src-Zap70, 0.5 mM ATP, 1% (v/v) DMSO (enzyme reaction) and 100 nM UBE2D2([…])-Ub-FL-BODIPY, 5 mM EDTA, 1 nM Streptavidin-Tb (binding reaction). The HTRF assay signal was measured at 520 nm on an Envision plate reader, with reference signal at 485 or 620 nm. Data was normalized using maximum and minimum assay controls: % Inhibition=100-(100*((maximum control)-unknown)/(maximum control-minimum control)). A 4-parameter dose-response equation was used to fit the normalized dose-response data and derive an IC50 for test compounds.

Chain of Recombinant human c-Cbl (aa 47-435) (P22681 47-435): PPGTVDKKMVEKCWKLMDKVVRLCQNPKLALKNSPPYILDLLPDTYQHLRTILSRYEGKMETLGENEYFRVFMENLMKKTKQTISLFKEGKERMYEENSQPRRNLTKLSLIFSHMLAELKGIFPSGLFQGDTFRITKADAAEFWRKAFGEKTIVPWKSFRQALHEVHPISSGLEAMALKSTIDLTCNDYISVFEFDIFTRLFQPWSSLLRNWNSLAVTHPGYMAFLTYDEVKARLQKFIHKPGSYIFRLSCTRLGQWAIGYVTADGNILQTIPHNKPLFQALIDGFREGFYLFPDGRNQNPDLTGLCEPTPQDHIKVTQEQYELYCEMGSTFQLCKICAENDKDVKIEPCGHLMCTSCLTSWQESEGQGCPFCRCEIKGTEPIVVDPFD
Chain of Recombinant human Cbl-b (aa 36-427) (Q13191 36-427): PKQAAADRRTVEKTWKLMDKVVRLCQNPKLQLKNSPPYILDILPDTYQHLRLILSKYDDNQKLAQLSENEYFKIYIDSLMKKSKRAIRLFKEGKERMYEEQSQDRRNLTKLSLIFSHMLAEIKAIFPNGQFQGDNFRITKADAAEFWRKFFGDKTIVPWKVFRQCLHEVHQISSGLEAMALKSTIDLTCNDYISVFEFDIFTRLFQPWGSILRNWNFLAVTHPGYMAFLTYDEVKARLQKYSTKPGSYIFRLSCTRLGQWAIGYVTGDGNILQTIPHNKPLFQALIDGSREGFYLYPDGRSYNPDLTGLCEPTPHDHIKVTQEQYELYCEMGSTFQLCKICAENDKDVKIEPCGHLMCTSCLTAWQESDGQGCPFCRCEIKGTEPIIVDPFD

SMILES | IC50 [1] [nM] | IC50 [2] [nM]
Cn1cnnc1-c1cc(C#N)ccc1-c1cc(C2CC2)nc(N2Cc3ccc(CNCC4(O)CCCC4)cc3C2=O)c1 [AIF-1, 4-{2-Cyclopropyl-6-[6-({[(1-hydroxycyclopentyl)methyl]amino}methyl)-1-oxo-3H-isoindol-2-yl]pyridin-4-yl}-3-(4-methyl-1,2,4-triazol-3-yl)benzonitrile] | ≤ 200 | ≤ 200
Cn1cnnc1-c1cc(C#N)ccc1-c1cc(C2CC2)nc(N2Cc3ccc(CNCC4CCCC4)cc3C2=O)c1 [AIG-1, 4-[2-(6-{[(Cyclopentylmethyl)amino]methyl}-1-oxo-3H-isoindol-2-yl)-6-cyclopropylpyridin-4-yl]-3-(4-methyl-1,2,4-triazol-3-yl)benzonitrile] | ≤ 200 | ≤ 200
COCCNCc1cc2c(cc1F)CN(c1cc(-c3ccc(C#N)cc3-c3nncn3C)cc(C3CC3)n1)C2=O [AIH-2, 4-(2-Cyclopropyl-6-(5-fluoro-6-(((2-methoxyethyl)amino)methyl)-1-oxoisoindolin-2-yl)pyridin-4-yl)-3-(4-methyl-4H-1,2,4-triazol-3-yl)benzonitrile] | ≤ 200 | ≤ 200
Cn1cnnc1-c1cc(F)cc(F)c1-c1cc(C2CC2)nc(N2Cc3ccc(CNCC4(O)CCC4)cc3C2=O)c1 [AII-9, 2-{6-Cyclopropyl-4-[2,4-difluoro-6-(4-methyl-1,2,4-triazol-3-yl)phenyl]pyridin-2-yl}-6-({[(1-hydroxycyclobutyl)methyl]amino}methyl)-3H-isoindol-1-one] | ≤ 200 | ≤ 200
CCOc1cc(-c2ccc(F)cc2-c2nncn2C)cc(N2Cc3c(OC)cc(CNCC4(O)CCC4)cc3C2=O)n1 [AIJ-2, 2-{6-Ethoxy-4-[4-fluoro-2-(4-methyl-1,2,4-triazol-3-yl)phenyl]pyridin-2-yl}-6-({[(1-hydroxycyclobutyl)methyl]amino}methyl)-4-methoxy-3H-isoindol-1-one] | ≤ 200 | ≤ 200
COC[C@@H](C)NCc1ccc2c(c1)C(=O)N(c1cc(-c3ccc(C#N)cc3-c3nncn3C)cc(C3CC3)n1)C2 [AIK-2, 4-{2-Cyclopropyl-6-[6-({[(2R)-1-methoxypropan-2-yl]amino}methyl)-1-oxo-3H-isoindol-2-yl]pyridin-4-yl}-3-(4-methyl-1,2,4-triazol-3-yl)] | ≤ 200 | ≤ 200
CC(C)OCCNCc1ccc2c(c1)C(=O)N(c1cc(-c3ccc(C#N)cc3-c3nncn3C)cc(C3CC3)n1)C2 [AIL-3, 4-[2-Cyclopropyl-6-(6-{[(2-isopropoxyethyl)amino]methyl}-1-oxo-3H-isoindol-2-yl)pyridin-4-yl]-3-(4-methyl-1,2,4-triazol-3-yl)benzonitrile] | ≤ 200 | ≤ 200
CO[C@@H](C)CNCc1ccc2c(c1)C(=O)N(c1cc(-c3ccc(C#N)cc3-c3nncn3C)cc(C3CC3)n1)C2 [AIM-2, 4-{2-cyclopropyl-6-[6-({[(2S)-2-methoxypropyl]amino}methyl)-1-oxo-3H-isoindol-2-yl]pyridin-4-yl}-3-(4-methyl-1,2,4-triazol-3-yl) benzonitrile] | ≤ 200 | ≤ 200
CCOCCNCc1ccc2c(c1)C(=O)N(c1cc(-c3ccc(C#N)cc3-c3nncn3C)cc(C3CC3)n1)C2 [AIN-2, 4-[2-cyclopropyl-6-(6-{[(2-ethoxyethyl)amino]methyl}-1-oxo-3H-isoindol-2-yl)pyridin-4-yl]-3-(4-methyl-1,2,4-triazol-3-yl)benzonitrile] | ≤ 200 | ≤ 200
COCCNCc1cc(F)c2c(c1)C(=O)N(c1cc(-c3ccc(C#N)cc3-c3nncn3C)cc(C3CC3)n1)C2 [AIO-9, 4-[2-Cyclopropyl-6-(4-fluoro-6-{[(2-methoxyethyl)amino]methyl}-1-oxo-3H-isoindol-2-yl)pyridin-4-yl]-3-(4-methyl-1,2,4-triazol-3-yl)benzonitrile] | ≤ 200 | ≤ 200
CC[C@@H](O)CNCc1ccc2c(c1)C(=O)N(c1cc(-c3ccc(C#N)cc3-c3nncn3C)cc(C3CC3)n1)C2 [AIP-2, 4-{2-Cyclopropyl-6-[6-({[(2R)-2-hydroxybutyl]amino}methyl)-1-oxo-3H-isoindol-2-yl]pyridin-4-yl}-3-(4-methyl-1,2,4-triazol-3-yl)benzonitrile] | ≤ 200 | ≤ 200
COCCOCc1ccc2c(c1)C(=O)N(c1cc(-c3ccc(C#N)cc3-c3nncn3C)cc(C3CC3)n1)C2 [AIQ-2, 4-(2-Cyclopropyl-6-(6-((2-methoxyethoxy)methyl)-1-oxoisoindolin-2-yl)pyridin-4-yl)-3-(4-methyl-4H-1,2,4-triazol-3-yl)benzonitrile] | ≤ 200 | ≤ 200
COC[C@H](C)NCc1ccc2c(c1)C(=O)N(c1cc(-c3ccc(C#N)cc3-c3nncn3C)cc(C3CC3)n1)C2 [AIR-2, (S)-4-(2-cyclopropyl-6-(6-(((1-methoxypropan-2-yl)amino)methyl)-1-oxoisoindolin-2-yl)pyridin-4-yl)-3-(4-methyl-4H-1,2,4-triazol-3-yl)benzonitrile] | ≤ 200 | ≤ 200
Cn1cnnc1-c1cc(C#N)ccc1-c1cc(C2CC2)nc(N2Cc3ccc(COCC4CCCC4)cc3C2=O)c1 [AIS-2, 4-(2-{6-[(cyclopentylmethoxy)methyl]-1-oxo-3H-isoindol-2-yl}-6-cyclopropylpyridin-4-yl)-3-(4-methyl-1,2,4-triazol-3-yl)benzonitrile] | ≤ 200 | ≤ 200
CNCc1ccc2c(c1)C(=O)N(c1cc(-c3ccc(C#N)cc3-c3nncn3C)cc(C3CC3)n1)C2 [AIT-1, 4-(2-cyclopropyl-6-{6-[(methylamino)methyl]-1-oxo-3H-isoindol-2-yl}pyridin-4-yl)-3-(4-methyl-1,2,4-triazol-3-yl)benzonitrile] | ≤ 200 | ≤ 200
Cn1cnnc1-c1cc(Cl)ccc1-c1cc(C2CC2)nc(N2Cc3ccc(CO)cc3C2=O)c1 [AIU-1, 2-(4-(4-Chloro-2-(4-methyl-4H-1,2,4-triazol-3-yl)phenyl)-6-cyclopropylpyridin-2-yl)-6-(hydroxymethyl)isoindolin-1-one] | ≤ 200 | ≤ 200
Cn1cnnc1-c1cc(Cl)ccc1-c1cc(C2CC2)nc(N2Cc3ccc(CNCC4CCC4)cc3C2=O)c1 [AIV-2, 2-(4-(4-Chloro-2-(4-methyl-4H-1,2,4-triazol-3-yl)phenyl) -6-cyclopropylpyridin-2-yl)-6-(((cyclobutylmethyl)amino)methyl) isoindolin-1-one] | ≤ 200 | ≤ 200
COC(C)(C)CNCc1ccc2c(c1)C(=O)N(c1cc(-c3ccc(C#N)cc3-c3nncn3C)cc(C3CC3)n1)C2 [AIW-2, 4-[2-Cyclopropyl-6-(6-{[(2-methoxy-2-methylpropyl)amino]methyl}-1-oxo-3H-isoindol-2-yl)pyridin-4-yl]-3-(4-methyl-1,2,4-triazol-3-yl)benzonitrile] | ≤ 200 | ≤ 200
CN(Cc1ccc2c(c1)C(=O)N(c1cc(-c3ccc(C#N)cc3-c3nncn3C)cc(C3CC3)n1)C2)CC1CC1 [AIX-2, 4-[2-Cyclopropyl-6-(6-{[(cyclopropylmethyl)(methyl)amino]methyl}-1-oxo-3H-isoindol-2-yl)pyridin-4-yl]-3-(4-methyl-1,2,4-triazol-3-yl)benzonitrile] | ≤ 200 | ≤ 200
CNCCOCc1ccc2c(c1)C(=O)N(c1cc(-c3ccc(C#N)cc3-c3nncn3C)cc(C3CC3)n1)C2 [AIY-2, 4-[2-Cyclopropyl-6-(6-{[2-(methylamino)ethoxy]methyl}-1-oxo-3H-isoindol-2-yl)pyridin-4-yl]-3-(4-methyl-1,2,4-triazol-3-yl)benzonitrile] | ≤ 200 | ≤ 200
CN1CC[C@@H](NCc2ccc3c(c2)C(=O)N(c2cc(-c4ccc(C#N)cc4-c4nncn4C)cc(C4CC4)n2)C3)C1=O [AIZ-2, 4-{2-Cyclopropyl-6-[6-({[(3R)-1-methyl-2-oxopyrrolidin-3-yl]amino}methyl)-1-oxo-3H-isoindol-2-yl]pyridin-4-yl}-3-(4-methyl-1,2,4-triazol-3-yl)benzonitrile] | ≤ 200 | ≤ 200
